Values after ≈ are worked out from the molar mass of the structure shown. “Also recorded” adds a separate entry of the source. Like-named read-outs stand apart in the source and are kept apart here.
Assays:
Format in all cases: cell-based
[1] = system: Stat3; assay: Stat3 luciferase reporter assay (IL-6 induced); conditions: Homo sapiens; for activity at 1 µg/mL: Hela cells, 4 h, read-out: percentage of luciferase induction Stat3/IL-6
Description: (§1) Hela cells from ATCC were plated in white opaque 384 well plates at a density of 4300 cells/well in 30 µL of a growth medium (DMEM with 10% FBS and 1% Pen/step). The next day, the medium was aspirated and replaced with DMEM containing 10% FBS. The cells were transfected with respective plasmids using the X-tremeGENE HP transfection reagent (Roche). Luciferase vectors used in this assay are summarized in Table S2, Supporting Information. After 24 h of transfection, the test agents were added to the transfected cells, followed 30 min later by an inducing agent (IL-6 for Stat 3, TGF-beta for Smad, m-wnt3a for Wnt and PMA for AP-1, NF-kB, E2F, Myc, ETS, Notch and Hedgehog). No inducer was added for FoXO, miR-21, and […]. After 4 h or 6 h of induction, the cells were lysed by the addition of the One-Glo luciferase assay system (Promega, Madison, WI, USA). The light output was detected in a Glomax Multi+ detection system with the Instinct Software (Promega, Madison, WI, USA). This luciferase assay determines if the test agent was able to inhibit the activation of cancer-related signaling pathways. In the case of FoxO and mi-R21, the enhanced luciferase activity by the test agent was assessed.

[2] = system: Smad; assay: Smad luciferase reporter assay (TGF-beta induced); conditions: for percentage of luciferase induction Smad/TGF-b: Hela cells, 1µg/ml, 4 h
Description: as §1

[3] = system: Ap-1; assay: AP-1 luciferase reporter assay (PMA induced); conditions: for activity at 1 µg/mL: Hela cells, 4 h, read-out: percentage of luciferase induction Ap-1/PMA
Description: as §1

[4] = system: NF-κB; assay: NF-κB luciferase reporter assay (PMA induced); conditions: Homo sapiens; for activity at 1 µg/mL: Hela cells, 4 h, read-out: percentage of luciferase induction NF-kB/PMA
Description: as §1

[5] = system: E2F; assay: E2F luciferase reporter assay (PMA induced); conditions: Homo sapiens; for activity at 1 µg/mL: Hela cells, 4 h, read-out: percentage of luciferase induction E2F/PMA
Description: as §1

[6] = system: Myc; assay: Myc luciferase reporter assay (PMA induced); conditions: Homo sapiens; for activity at 1 µg/mL: Hela cells, 4 h, read-out: percentage of luciferase induction Myc/PMA
Description: as §1

[7] = system: Ets; assay: Ets luciferase reporter assay (PMA induced); conditions: Homo sapiens; for activity at 1 µg/mL: Hela cells, 4 h, read-out: percentage of luciferase induction Ets/PMA
Description: as §1

[8] = system: Notch; assay: Notch luciferase reporter assay (PMA induced); conditions: Homo sapiens; for activity at 1 µg/mL: Hela cells, 6 h, read-out: percentage of luciferase induction Notch/PMA
Description: as §1

[9] = system: FoxO; assay: FoxO luciferase reporter assay (no inducer); conditions: for percentage of luciferase induction FoxO: Hela cells, 1µg/ml, 6 h
Description: as §1

[10] = system: Wnt; assay: Wnt luciferase reporter assay (m-wnt3a induced); conditions: Homo sapiens; for activity at 1 µg/mL: Hela cells, 6 h, read-out: percentage of luciferase induction Wnt/m-wnt 3a
Description: as §1

[11] = system: Hedgehog; assay: Hedgehog luciferase reporter assay (PMA induced); conditions: Homo sapiens; for activity at 1 µg/mL: Hela cells, 6 h, read-out: percentage of luciferase induction Hdghog/PMA
Description: as §1

[12] = system: miR-21; assay: miR-21 luciferase reporter assay (no inducer); conditions: Hela cells, 1µg/ml, 6 h
Description: as §1

[13] = system: pTK control vector; assay: pTK control vector luciferase assay (minimal thymidine kinase promoter); conditions: no inducer; for percentage of luciferase induction pTK: Hela cells, 1µg/ml
Description: as §1

[14] = system: MDA-MB 231 cells; assay: Cytotoxicity assay (WST-8) of SGF/SIF treated and untreated peptide; conditions: 48 h, SGF pH 1.2 60 min or SIF pH 7.5 with pancreatin 8 h, 37 °C, unpaired t-test
Description: (§2) T98G and MDA-MB 231 cells from ATCC, were plated in clear 384-well plates at an initial density of 1700 cells/well for T98G cells and 2500 cells/well of MDA-MB 231 cells in 40 µL of a growth medium (DMEM with 10% FBS and 1% Pen/step). The next day, the test agents were added at the specified concentration, the treatment continued for 48 h, and the cell viability was finally assessed using the WST-8 assay Cell Counting Kit from Bimake, according to the manufacturer’s instructions. The results were measured by absorbance at 450 nm using the SpectraMax M5 plate reader (Molecular Devices). The cell viability was calculated in comparison to the DMSO control.
(§3) The simulated gastric fluid was prepared as described in the United States Pharmacopoeia (USP, 1995) and consists of 0.2% w/v of NaCl and 0.7% v/v of hydrochloric acid at pH 1.2. Aliquots (48 µL) of SGF were placed in 1.5-mL microcentrifuge tubes and incubated in a water bath at 37 °C [35]. In addition, 2 µL of compound 6 (10 mg/mL in DMSO) was added to each of the SGF vials to start the digestion reaction. The incubation was continued for 60 min and the digestion was stopped with 150 µL of ice-cold cell culture media. The digested samples were used for the cytotoxicity and luciferase assays at different concentrations and the activities were compared between the untreated and SGF treated peptide samples. […]

[15] = system: T98G cells; assay: as above; conditions: 48 h, SGF pH 1.2 60 min or SIF pH 7.5 with pancreatin 8 h, 37 °C, unpaired t-test
Description: as §2, §3

[16] = system: cancer-related signaling pathways in HeLa cells; assay: Panel of luciferase reporter genes for cancer-related signaling pathways
Description: as §1
The simulated gastric fluid was prepared as described in the United States Pharmacopoeia (USP, 1995) and consists of 0.2% w/v of NaCl and 0.7% v/v of hydrochloric acid at pH 1.2. Aliquots (48 µL) of SGF were placed in 1.5-mL microcentrifuge tubes and incubated in a water bath at 37 °C [35]. In addition, 2 µL of compound 6 (10 mg/mL in DMSO) was added to each of the SGF vials to start the digestion reaction. The incubation was continued for 60 min and the digestion was stopped with 150 µL of ice-cold cell culture media. The digested samples were used for the cytotoxicity and luciferase assays at different concentrations and the activities were compared between the untreated and SGF treated peptide samples.

[17] = SGF treated compound (pH 1.2, 37 °C, 60 min)
[18] = HeLa cells, agent added 30 min before PMA, harvested 4 h later, ND = No activity detected

COc1ccc(C[C@H]2C(=O)N[C@@H](C)C(=O)N(C)[C@H]3Cc4ccc(cc4)Oc4cc(ccc4O)C[C@@H](C(=O)N[C@H](C)C(=O)N[C@@H](C)C(=O)N2C)N(C)C3=O)cc1 [Compound 6, deoxybouvardin]
IC50 ([1]; HeLa cells, agent added 30 min before IL-6, harvested 4 h later, ND = No activity detected): 0.18 µg/mL (≈ 0.238 µM)
activity at 1 µg/mL [1, 17]: -4%
activity at 1 µg/mL ([1]; untreated compound): -4%
percentage of luciferase induction Smad/TGF-b [2, 17]: 41%
percentage of luciferase induction Smad/TGF-b ([2]; untreated compound): 33%
IC50 ([2]; Homo sapiens, HeLa cells, agent added 30 min before TGF-beta, harvested 4 h later, ND = No activity detected): 0.3 µg/mL (≈ 0.396 µM)
IC50 [3, 18]: 0.22 µg/mL (≈ 0.291 µM)
activity at 1 µg/mL [3, 17]: 43%
activity at 1 µg/mL ([3]; untreated compound): 48%
IC50 [4, 18]: 0.17 µg/mL (≈ 0.225 µM)
activity at 1 µg/mL [4, 17]: 34%
activity at 1 µg/mL ([4]; untreated compound): 33%
IC50 [5, 18]: 0.36 µg/mL (≈ 0.476 µM)
activity at 1 µg/mL [5, 17]: 8%
activity at 1 µg/mL ([5]; untreated compound): 82%
IC50 [6, 18]: 0.075 µg/mL (≈ 0.0991 µM)
activity at 1 µg/mL [6, 17]: 20%
activity at 1 µg/mL ([6]; untreated compound): -8%
IC50 [7, 18]: 0.18 µg/mL (≈ 0.238 µM)
activity at 1 µg/mL [7, 17]: 58%
activity at 1 µg/mL ([7]; untreated compound): 60%
IC50 ([8]; HeLa cells, agent added 30 min before PMA, harvested 6 h later, ND = No activity detected): 0.093 µg/mL (≈ 0.123 µM)
activity at 1 µg/mL [8, 17]: 56%
activity at 1 µg/mL ([8]; untreated compound): 65%
percentage of luciferase induction FoxO [9, 17]: 68%
percentage of luciferase induction FoxO ([9]; untreated compound): 51%
IC50 ([9]; Homo sapiens, HeLa cells, harvested 6 h later, ND = No activity detected): 0.1 µg/mL (≈ 0.132 µM)
IC50 ([10]; HeLa cells, agent added 30 min before m-wnt 3a, harvested 6 h later, ND = No activity detected): 0.05 µg/mL (≈ 0.0661 µM)
activity at 1 µg/mL [10, 17]: 12%
activity at 1 µg/mL ([10]; untreated compound): 6%
IC50 ([11]; HeLa cells, agent added 30 min before PMA, harvested 6 h later, ND = No activity detected, read-out: IC50 Hdghog/PMA): 0.2 µg/mL (≈ 0.264 µM)
activity at 1 µg/mL [11, 17]: 5%
activity at 1 µg/mL ([11]; untreated compound): 1%
percentage of luciferase induction miR21 [12, 17]: 150%
percentage of luciferase induction miR21 ([12]; untreated compound): 183%
percentage of luciferase induction pTK [13, 17]: 48%
percentage of luciferase induction pTK ([13]; untreated compound): 50%
IC50 ([13]; Homo sapiens, HeLa cells, ND = No activity detected): 0.9 µg/mL (≈ 1.19 µM)
activity (cell viability) of SGF or SIF treated compared to untreated compound [14]: remained the same before and after the treatment; also recorded: non-significant
activity (cell viability) of SGF or SIF treated compared to untreated compound [15]: remained the same before and after the treatment; also recorded: non-significant
activity of SGF treated peptide across the panel of cancer signaling pathways compared to untreated peptide ([16]; Hela cells, SGF treated, Table S1): comparable to the untreated peptide
IC50 ([16]; Homo sapiens, HeLa cells, summary statement on Table 1, read-out: IC50 values for several pathways across the panel): < 0.5 µg/mL
